Where two headings read alike, the source gives them in different places.
Columns and labels:
M1 muscarinic receptor [1] = molecular target: T1, M1 muscarinic receptor (Rattus norvegicus, UniProt P08482); assay: Potentiation of AC activity (basal and forskolin-stimulated cAMP) via m1 receptors; format: cell-based; parameters: expressed in transfected cells; host or cells: CHO cells
T1 sequence (P08482 1-460): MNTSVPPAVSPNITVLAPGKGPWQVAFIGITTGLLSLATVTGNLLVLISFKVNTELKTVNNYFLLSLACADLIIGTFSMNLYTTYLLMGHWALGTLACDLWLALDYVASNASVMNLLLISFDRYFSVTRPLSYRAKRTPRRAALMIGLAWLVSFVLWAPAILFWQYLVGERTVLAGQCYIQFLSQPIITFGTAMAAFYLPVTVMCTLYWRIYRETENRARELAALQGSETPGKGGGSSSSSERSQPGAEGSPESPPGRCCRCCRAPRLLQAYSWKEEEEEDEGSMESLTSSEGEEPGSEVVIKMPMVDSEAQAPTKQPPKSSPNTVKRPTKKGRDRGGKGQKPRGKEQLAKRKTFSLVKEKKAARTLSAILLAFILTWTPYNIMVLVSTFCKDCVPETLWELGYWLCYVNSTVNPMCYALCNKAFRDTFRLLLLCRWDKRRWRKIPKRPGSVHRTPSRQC
Text: Stimulation of m1 and m3 receptors elicit dose-dependent increases in the hydrolysis of phosphoinositides (PI). Agonist activation of the m1 receptor also elicits increases in basal and forskolin-stimulated cAMP, whereas the m3 receptor has no effect on intracellular cAMP levels (Buck and Fraser, Biochem. Biophys. Res. Comm. 173: 662-672, 1990). Stimulation of the m2 and m4 receptors by muscarinic agonists leads to preferential inhibition of adenylate cyclase (AC) activity (Mei et al, Life Sciences, 45: 1831-1851, 1989).

[2] = tested on: rat cerebral cortex synaptosomes; assay: Synaptosomal 3H-ACh release, basal and K+-evoked
Text: The effects of AF150 (and for comparison purposes, AF125, MeN-A-343 and oxotremorine) on basal- and K^+-evoked release of ^3H-ACh were studied on synaptosomes prepared from rat cerebral cortex using the methods described in detail by Pittel et al (J. Neurochem., 55: 665-672, 1990). […] On the other hand, the action of AF150 on presynaptic muscarinic receptors, causing an increase in K^+-evoked ACh release, can be considered either as an M2 antagonistic or an M1 agonistic effect. […] The existence of muscarinic autoreceptors that increase ACh release was manifested also in the PNS in smooth muscle preparation (Kilbinger and Nafziger, Naunyn Schmiedebergs Arch. Pharmacol. 328: 304-309, 1985).

M1 muscarinic receptor [3] = molecular target: T1, M1 muscarinic receptor; assay: Displacement of 3H-PZ from cortical binding sites, Tris/Mn buffer, with and without GppNHp; parameters: from tissue; host or cells: rat cerebral cortex homogenates; settings: for KL-G / KH-G: ratio of low and high affinities without GppNHp
Text: The binding of agonists to M1 muscarinic receptors and the effect of guanylyl imidophosphate (GppNHp). Agonists are known to be coupled with guanine nucleotide binding proteins (G proteins).
Non-hydrolyzable guanine nucleotides such as GppNHp dissociate the G protein from the receptor and decrease the affinity of the receptor for agonists but not for antagonists. […] Molec.
Under these conditions agonists of high efficacy ("full agonists") bind directly to the M1 receptor subtype with two affinities. […] The ratio of low and high affinities (KL/KH) of the M1 receptor may predict the relative efficacies of agonists to activate putative M1 receptor-mediated second messenger systems.
KH, KL, %H and %L are the apparent inhibition constants of the tested ligands for the high and low affinity sites, respectively. G is GppNHp (guanylyl imidodiphosphate), and was used in 0.1 mM concentration. Displacement of ^3H-PZ from cortical binding sites was performed in Tris/Mn buffer (pH 7.4) for one hour at 25°C; the buffer included 1 mM EDTA and 2mM Mn^++ ions. […] The binding data were analyzed using a GraphPAD program and were fitted to one or two components. Values are means from 1-3 experiments carried out in triplicates.

[4] = molecular target: T2, m3 subtype (SK-N-SH cells) (Homo sapiens, UniProt P20309); assay: PI hydrolysis in SK-N-SH neuroblastoma cells; format: cell-based
T2 construct: endogenous in cells; host or cells: SK-N-SH human neuroblastoma cells
T2 sequence (P20309 whole entry): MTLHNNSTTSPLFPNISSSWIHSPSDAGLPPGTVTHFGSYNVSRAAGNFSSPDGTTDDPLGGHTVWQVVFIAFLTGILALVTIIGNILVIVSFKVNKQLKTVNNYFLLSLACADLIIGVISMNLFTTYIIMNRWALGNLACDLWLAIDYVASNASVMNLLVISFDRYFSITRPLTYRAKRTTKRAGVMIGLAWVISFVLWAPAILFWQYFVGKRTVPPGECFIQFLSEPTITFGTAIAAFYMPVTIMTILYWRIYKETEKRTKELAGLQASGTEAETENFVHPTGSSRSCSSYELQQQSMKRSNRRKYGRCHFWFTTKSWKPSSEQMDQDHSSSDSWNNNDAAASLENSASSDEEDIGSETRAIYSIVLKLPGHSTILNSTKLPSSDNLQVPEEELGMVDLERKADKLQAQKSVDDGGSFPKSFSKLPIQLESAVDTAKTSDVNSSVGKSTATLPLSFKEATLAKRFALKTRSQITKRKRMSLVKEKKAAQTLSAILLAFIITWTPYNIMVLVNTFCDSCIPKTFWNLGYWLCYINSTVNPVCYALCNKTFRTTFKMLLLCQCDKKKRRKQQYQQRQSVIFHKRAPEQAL
Procedure: The new compounds AF150, AF151, AF150(S) and AF125 were assayed for their ability to stimulate PI in CHO cells transfected with m1 and m3 receptors, respectively (Buck and Fraser, loc cit), and in cultured human neuroblastoma cells, line SK-N-SH, which express mainly the m3 subtype, but not the m1 subtype (Pinkas-Kramarski et al, Neurosci. Lett. 188: 335-340, 1990; Luthin et al Mol. Pharmacol. 34: 327-333, 1988). These compounds were also assayed on cultured PC12 cells which express mainly m4 subtype receptors and are coupled to inhibition of AC activity (Pinkas-Kramarski et al, loc cit).
Stimulation of PI breakdown was assayed using the method described by Stein et al (EMBO J. 7: 3031-3035, 1988), and modulation of AC activity was assayed by the method of Stein et al, loc cit and Pinkas-Kramarski et al (FEBS Lett., 239: 174-178, 1988). […]

m1 receptors = molecular target: T3, m1 receptors (Rattus norvegicus, UniProt P08482); assay: PI hydrolysis in CHO cells transfected with m1 receptors; format: cell-based; settings: for EC50: CHO m1, PI hydrolysis; for PI (phosphoinositides hydrolysis): tested at 1mM
T3 construct: expressed in transfected cells; host or cells: CHO cells
T3 sequence (P08482 1-460): T1 sequence (P08482 1-460)

M2 muscarinic receptors = molecular target: T4, M2 muscarinic receptors (Rattus norvegicus, UniProt P10980); assay: Displacement of 3H-QNB from rat cerebellum, 50 mM phosphate buffer; format: binding
T4 construct: displacing from rat brain homogenates, cerebellum or frontal cortex; from tissue; host or cells: rat cerebellum homogenates
T4 sequence (P10980 1-466): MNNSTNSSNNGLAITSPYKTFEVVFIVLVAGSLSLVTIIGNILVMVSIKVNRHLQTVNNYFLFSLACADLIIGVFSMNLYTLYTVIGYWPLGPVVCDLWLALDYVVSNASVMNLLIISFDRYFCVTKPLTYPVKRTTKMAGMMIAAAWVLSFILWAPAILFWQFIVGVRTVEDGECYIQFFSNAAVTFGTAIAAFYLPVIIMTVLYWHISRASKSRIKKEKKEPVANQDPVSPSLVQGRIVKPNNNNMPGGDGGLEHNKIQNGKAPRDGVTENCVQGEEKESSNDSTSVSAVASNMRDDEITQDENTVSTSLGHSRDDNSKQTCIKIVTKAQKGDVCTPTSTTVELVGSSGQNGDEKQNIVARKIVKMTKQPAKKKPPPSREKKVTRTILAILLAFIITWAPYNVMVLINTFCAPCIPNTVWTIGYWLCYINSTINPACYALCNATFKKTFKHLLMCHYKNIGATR

[5] = +G (0.1 mM GppNHp), read-out: KL
[6] = -G (without GppNHp), read-out: KH
[7] = +G (0.1 mM GppNHp), read-out: KH

Row | Structure (SMILES) | increase in basal cAMP (M1 muscarinic receptor [1]) [%] | increase in forskolin-stimulated cAMP (M1 muscarinic receptor [1]) [%] | K+-evoked 3H-ACh release ([2]; 1.0 mM) | %L (M1 muscarinic receptor [3]; +G (0.1 mM GppNHp)) [%] | Ki (M1 muscarinic receptor [3]; [5]) [µM] | % H (M1 muscarinic receptor [3]; -G) [%] | %L (M1 muscarinic receptor [3]; -G) [%] | Ki (M1 muscarinic receptor [3]; [6]) [µM] | Ki (M1 muscarinic receptor [3]; -G, read-out: KL) [µM] | KL-G / KH-G (M1 muscarinic receptor [3]) | PI, % of carbachol effect ([4]; SK-N-SH m3) [%] | EC50 (m1 receptors) [µM] | PI (phosphoinositides hydrolysis) (m1 receptors; CHO m1) | Ki (M1 muscarinic receptor [3]; [7]) [µM] | other results
1 | CC1=NCC2(CCN(C)CC2)O1 [AF150, 2-Methyl-spiro(1,3-oxazoline-5,4')-1'-methylpiperidine] | 33 | 76 | 115±4 (6) p<0.01% | 100 | 21 | 21 | 83 | 0.11 | 11 | 100 | 40 | 13 | +++ |  | Basal 3H-ACh release ([2]; 0.1 mM): 121%; K+-evoked 3H-ACh release ([2]; 0.1 mM): 110%; EC50 ([4]; SK-N-SH m3, PI hydrolysis): 3 µM; PI (phosphoinositides hydrolysis) ([4]; SK-N-SH m3, tested at 1mM): +; RATIOS d:c (M2 muscarinic receptors; KL2 : KH2 cerebellum (3H-QNB)): 17; % H (M2 muscarinic receptors; cerebellum, Table 4): 49%; %L (M2 muscarinic receptors; cerebellum, Table 4): 51%; Ki (M2 muscarinic receptors; cerebellum, Table 4, read-out: 3H-QNB-Binding KH (c)): 4.5 µM; Ki (M2 muscarinic receptors; cerebellum, Table 4, read-out: 3H-QNB-Binding KL (d)): 79 µM; % H2 (M2 muscarinic receptors; cerebellum, Table 5): 51%; % L2 (M2 muscarinic receptors; cerebellum, Table 5): 49%; Ki (M2 muscarinic receptors; cerebellum, Table 5, read-out: 3H-QNB-Binding KH2 (c)): 4.9 µM; Ki (M2 muscarinic receptors; cerebellum, Table 5, read-out: 3H-QNB-Binding KL2 (d)): 83 µM
2 | CC1=NCC2(CN3CCC2CC3)O1 (racemic) [AF125, 2-Methyl-spiro(1,3 oxazoline-5,3')quinuclidine] |  |  | 78±9 (2) % |  | 12 |  |  | 9 | 12 |  | 20 |  |  | 9 | interference with the effect of carbachol [4]: 10-20%; stimulation of phosphoinositides hydrolysis relative to carbachol [4]: 20-25%; PI, % of carbachol effect (m1 receptors; CHO m1): 14%; Ki (M2 muscarinic receptors; read-out: 3H-QNB-Binding KH2 (c), cerebellum, Table 5): 3.8 µM; Ki (M2 muscarinic receptors; read-out: 3H-QNB-Binding KH (c), cerebellum, Table 4): 3.8 µM
3 | CC1=NC2(CCN(C)CC2)CO1 [AF151, 1-methylpiperidine-4-spiro-4'-(2'-methyl-1',3'-oxazoline)] | 33 | 76 |  | 83 | 59 | 39 | 61 | 3.7 | 4.8 | 13 |  | 54 | +++ | 4.6 | % H (M1 muscarinic receptor [3]; +G (0.1 mM GppNHp)): 17%

— patent publication EP0452101B1, “Spiro bridged and unbridged heterocyclic compounds” (ISRAEL INSTITUTE FOR BIOLOGICAL RESEARCH, priority 1990, dated 1991)
